According to patent US20120083525A1, “COMPOSITION FOR PREVENTING OR TREATING OBESITY-RELATED DISEASES MEDIATED BY THE ACTIVATION OF AMPK AND INCLUDING 2,5-BIS-ARYL-3,4-DIMETHYLTETRAHYDROFURAN LIGNANS AS ACTIVE INGREDIENTS” (Amorepacific Corporation, priority 2009, published 2012):

Tested on: high fat diet-induced obese model
Assay: Anti-obesity effect in diet-induced obese (DIO) model, body weight change
Conditions: 100 mg/kg/day oral
Experimental: For the oral administration, the substances were dissolved in a 5% aqueous solution of methyl cellulose (Sigma Co., USA). 7-week-old male C57BL/6J mice were prepared for test, with 10 heads per group. After an accommodation period of 1 week, the mice were kept in individual cages and maintained with 12/12-hr light-dark cycles (lighting from 7 am to 5 pm). […] The corresponding substance was orally administered once a day at regular hours (10 am) for 8 weeks. Body weight was measured once a week (11 am). After 8 weeks of administration, the body weight of the test groups and the control group was analyzed.

COc1cc(C[C@H](C)[C@H](C)Cc2ccc3c(c2)OCO3)ccc1O [Macelignan, macelignan]
Body weight change (g) after oral administration, 14 days (14 days): 4.00 g | Body weight change (g) after oral administration, 21 days (21 days): 5.31 g | Body weight change (g) after oral administration, 28 days (28 days): 6.52 g | Body weight change (g) after oral administration, 35 days (35 days): 8.91 g | Body weight change (g) after oral administration, 42 days (42 days): 9.70 g | Body weight change (g) after oral administration, 49 days (49 days): 10.63 g
